The structures appear in SMILES notation. pIC50: −log10 of the molar value.

One data set addresses human p38 MAPK α (Homo sapiens (Human), UniProt Q16539). Put plainly: Evaluation of p38 MAPK inhibitory activity (Alpha Screen, ATF2 phosphorylation). The following applies: p38α/SAPK2a 1.5 nM, ATP 100 μM, biotinylated ATF2 30 nM. Format: biochemical. Here is the method:
Using human p38 MAPK α, the p38 MAPK inhibitory activity of Compound (I) was studied by a method partially modified from the method described in Current Medicinal Chemistry (2004, No. 11, pp. 721-730).
A solution of each test compound solution in 100% DMSO and a p38α/SAPK2a solution (Final Concentration: 1.5 nM) (Invitrogen) were added to a 384-well plate, and then the plate was incubated at room temperature in a dark place for 1 hour. Thereafter, ATP (Final Concentration: 100 μM), which is a phosphate donor, and biotinylated ATF2 (Final Concentration: 30 nM) (upstate), which is a substrate, were added, and the resulting mixture was allowed to react at room temperature in a dark place for 1 hour (the final concentration of DMSO was 0.25%). After the reaction, an anti-phosphorylated ATF2 antibody (Final Concentration: 1 nM) (Cell Signaling), anti-IgG acceptor beads (Final Concentration: 20 μg/mL) (PerkinElmer) and streptavidin donor beads (Final Concentration: 20 μg/mL) (PerkinElmer) were added, and the resultant was incubated at room temperature in a dark place for 1 hour. Using a microplate analyzer (Fusion-α, Packard) in Alpha Screen method (Amplified Luminescent Proximity Homogeneous Assay), the light emission was detected. The IC50 value of each compound was calculated by sigmoidal dose-response regression using Prism 4.02 (GraphPad Software, Inc.).

In another data set the test system is TNFα production. Nature of the data set: Cytokine production suppressing activity using human whole blood (LPS stimulation). The settings on record: LPS 200 ng/mL, 37° C., 5 hours. The class given is cell-based. The procedure:
Using human whole blood, the inhibitory action of Compound (I) on the TNFα production by LPS stimulation was studied by a method partially modified from the method described in Journal of Medicinal Chemistry (2003, Vol. 46, pp. 4676-4686).
A solution of each test compound in 100% DMSO and human blood were mixed in a 96-well flat-bottom plate. Thereafter, LPS (Final Concentration: 200 ng/mL) was added, and the resulting mixture was allowed to react at 37° C. for 5 hours (the final concentration of DMSO was 0.2%). After the reaction, the resultant was centrifuged for 20 minutes at room temperature, and the supernatant was collected. For the measurement of the TNFα amount in the supernatant, a human cytokine kit (CIS bio international) was used. As a comparative control compound, Comparative Compound 2 was used.

The nature of data set [1]: Pharmacokinetic evaluation in mouse (oral). Format: in vivo. The following applies: male; BALB/c mouse, oral 0.8 mg/kg, plasma. Here is the method: Each test compound was dissolved in 10% HP-β-CD (Nihon Shokuhin Kako Co., Ltd.) to prepare a solution to be administered (0.08 mg/mL, as a solution to be administered for oral administration). To each BALB/c mouse (male, 7-week old, Charles River Laboratories Japan, Inc.), each compound was orally administered at a dose of 0.8 mg/kg. Blood was collected from the jugular vein or heart with time up to 24 hours after the administration. The obtained blood was centrifuged to collect blood plasma. The blood plasma was pretreated by methanol extraction method, and the concentration of the compound was analyzed by LC/MS/MS (ESI positive mode).
In this table, Cmax represents a maximum plasma concentration; and AUC0-∞ represents an area under the curve of the plasma concentration of the compound from after the compound administration to infinite time.

For the next data set, the system named is ICR mouse. Put plainly: Evaluation of hepatotoxicity in mouse (plasma AST). Format: in vivo. The following applies: oral 500 mg/kg, plasma on the day after administration. Here is the method:
Compound (I) was suspended in 0.5% methylcellulose (Wako Pure Chemical Industries, Ltd.) to prepare a 50 mg/mL solution to be administered. To each ICR mouse (male, 7-week old, Charles River Laboratories Japan, Inc.), each compound was orally administered at a dose of 500 mg/kg. On the day after the administration, blood was collected from the posterior vena cava, and the obtained blood was centrifuged to collect blood plasma. AST (aspartate aminotransferase) value, which is a marker of hepatic disorders in blood plasma, was measured with a biochemistry automatic analyzer (Hitachi 7070, Hitachi, Ltd.). Comparative Compound 4 was suspended in 0.5% sodium carboxymethylcellulose (Wako Pure Chemical Industries, Ltd.) before use.

Chain of human p38 MAPK α (Q16539 whole entry): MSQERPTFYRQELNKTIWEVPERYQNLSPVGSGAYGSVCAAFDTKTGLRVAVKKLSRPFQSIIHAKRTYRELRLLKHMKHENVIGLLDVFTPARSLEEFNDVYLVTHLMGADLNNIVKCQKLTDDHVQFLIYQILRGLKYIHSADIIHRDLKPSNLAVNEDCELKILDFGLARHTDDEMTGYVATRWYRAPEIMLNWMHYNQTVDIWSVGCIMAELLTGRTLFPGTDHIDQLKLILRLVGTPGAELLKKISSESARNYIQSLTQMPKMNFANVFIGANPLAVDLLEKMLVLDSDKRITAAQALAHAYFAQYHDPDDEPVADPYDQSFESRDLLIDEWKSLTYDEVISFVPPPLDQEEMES

In the case of `COc1cccc2c1C[C@@H](NC(=O)Nc1cc(C(C)(C)C)cc([C@H](O)C(F)(F)F)c1OC)[C@H]2O` (single isomer, unassigned) [Compound 52b], the pIC50 was 7.62 against human p38 MAPK α and 6.96 in the data set on TNFα production.
In the same order, the values of `COc1c(NC(=O)N[C@@H]2Cc3c(F)cccc3[C@@H]2O)cc(N2CCOCC2)cc1[C@H](O)C(F)(F)F` (single isomer, unassigned) [Compound 84b] are 7.80 and 6.94.
For `CCC(C)(C)c1cc(NC(=O)N[C@@H]2Cc3ccccc3[C@@H]2O)c(OC)c([C@H](O)C(F)(F)F)c1` (single isomer, unassigned) [Compound 123b], at human p38 MAPK α, the pIC50 was 7.54.
As to `COc1c(NC(=O)NC2Cc3ccccc3C2)cc(C(C)(C)C)cc1C(O)C(F)(F)F` (stereo not drawn) [Comparative Compound 1, 1-(5-tert-butyl-2-methoxy-3-(2,2,2-trifluoro-1-hydroxyethyl)phenyl)-3-(2,3-dihydro-1H-indene-2-yl)urea, reference compound], at human p38 MAPK α, the pIC50 is 6.93.
Take `COc1c(CO)cc(C(C)(C)C)cc1NC(=O)NC1Cc2ccccc2C1` [Comparative Compound 2, 1-(5-tert-butyl-3-(hydroxymethyl)-2-methoxyphenyl)-3-(2,3-dihydro-1H-indene-2-yl)urea]: the pIC50 with TNFα production is 5.28. In data set [1], this compound registered a total exposure AUC(0-inf) of 116 ng·h/mL and a Cmax of 79.7 ng/mL.
Turning to `Cc1ccc(-n2nc(C(C)(C)C)cc2NC(=O)Nc2ccc(OCCN3CCOCC3)c3ccccc23)cc1` [Comparative Compound 4, 1-(3-tert-butyl-1-p-tolyl-1H-pyrazol-5-yl)-3-(4-(2-morpholinoethoxy)naphthalen-1-yl)urea, reference compound], the AST value with ICR mouse came out at 145 U/L.
Regarding `C[S+]([O-])c1ccc(-c2nc(-c3ccncc3)c(-c3ccc(F)cc3)[nH]2)cc1` (stereo not drawn) [Comparative Compound 5, 4-(4-(4-fluorophenyl)-2-(4-(methylsulfinyl)phenyl)-1H-imidazol-5-yl)pyridine], in data set [1], the AUC(0-inf) amounted to 59.8 ng·h/mL and the peak concentration (Cmax) is 11.4 ng/mL.
In the data set on TNFα production, `COc1c(CO)cc(C(C)(C)C)cc1NC(=O)N[C@@H]1Cc2c(F)cccc2[C@@H]1O` [Compound 3, 1-(5-tert-butyl-3-(hydroxymethyl)-2-methoxyphenyl)-3-((1S,2R)-4-fluoro-1-hydroxy-2,3-dihydro-1H-indene-2-yl)urea] gave a pIC50 of 6.63.
For the compound `COc1c(NC(=O)N[C@@H]2Cc3ccccc3[C@@H]2O)cc(C(C)(C)C)cc1C(N)C(F)(F)F` (stereo partly drawn) [Compound 47b, 1-(3-(1-amino-2,2,2-trifluoroethyl)-5-tert-butyl-2-methoxyphenyl)-3-((1S,2R)-1-hydroxy-2,3-dihydro-1H-indene-2-yl)urea], the pIC50 on human p38 MAPK α is 7.74.
`COc1c(NC(=O)N[C@H]2Cc3ccc(F)cc3[C@H]2O)cc(C(C)(C)C)cc1[C@@H](O)C(F)(F)F` [Compound 60b, 1-(5-tert-butyl-2-methoxy-3-((R)-2,2,2-trifluoro-1-hydroxyethyl)phenyl)-3-(cis-6-fluoro-1-hydroxy-2,3-dihydro-1H-indene-2-yl)urea] had a pIC50 with TNFα production of 6.74.

The values are drawn from patent US8653304B2, “2,3-dihydro-1H-indene-2-yl urea derivative and pharmaceutical application of same” (Toray Industries, Inc., priority 2009, dated 2014).
